Experimental data reported in paper PMC10547238, “Discovery of Potent Tetrazole Free Fatty Acid Receptor 2 Antagonists” (Journal of Medicinal Chemistry, 2023).
≈ marks a conversion by molar mass, not a printed value.

What was measured:
hFFA2 = target: T1, hFFA2 (Homo sapiens, UniProt O15552); test: cAMP assay, antagonist mode, Flp-In T-Rex 293 cells expressing hFFA2-eYFP; type: cell-based; settings: for cAMP pIC50: hFFA2, antagonist mode, propionate at EC80, mean ± SEM, three or more experiments; for LLEcAMP: pIC50, cAMP – ClogP; for LLEcAMP-logD: pIC50, cAMP – logD7.4; for IC50: read-out: hFFA2 cAMP (pIC50) (converted)
T1 construct: expressed in transfected cells; host or cells: Flp-In T-Rex 293 cells, doxycycline-induced
T1 sequence (O15552 1-330): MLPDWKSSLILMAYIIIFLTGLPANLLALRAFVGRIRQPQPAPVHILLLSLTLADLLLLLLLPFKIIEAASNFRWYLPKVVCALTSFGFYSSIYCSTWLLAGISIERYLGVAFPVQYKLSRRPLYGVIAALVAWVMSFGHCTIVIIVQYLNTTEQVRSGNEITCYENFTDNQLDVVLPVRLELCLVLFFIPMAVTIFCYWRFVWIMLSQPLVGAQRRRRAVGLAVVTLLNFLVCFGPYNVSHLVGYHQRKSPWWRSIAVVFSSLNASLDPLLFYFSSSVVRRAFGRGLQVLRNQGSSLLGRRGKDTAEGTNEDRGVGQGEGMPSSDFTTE
Procedure: (§1) The activity of the compounds on FFA2 was evaluated in two different functional antagonist assays, both using propionate at EC80 as the agonist. The GTPγS assay reflects receptor activation by directly assessing G protein recruitment, whereas the cAMP assay, performed in whole cells, reflects a physiologically relevant downstream second messenger.
The hFFA2-eYFP and hFFA3-eYFP Flp-In T-Rex 293 cell lines were maintained in Dulbecco’s modified Eagle mMedium (DMEM, ThermoFisher #11965092) supplemented with 10% (v/v) fetal bovine serum, 100 U/mL penicillin, 100 μg/mL streptomycin, 5 μg/mL blasticidin S, and 200 μg/mL hygromycin B and incubated at 37 °C and 5% CO2 in a humidified incubator. Cells were passaged at 70–80% confluency.
To determine the compound’s ability to activate or inhibit the Gi-coupled FFA2 or FFA3, intracellular cAMP concentrations were determined using Flp-In T-Rex293 cells induced to express hFFA2-eYFP or hFFA3-eYFP. Experiments were carried out using a homogeneous time-resolved FRET-based detection kit (CisBio, PerkinElmer #62AM9PEC) according to the manufacturer’s protocol. The day before the assay, 10,000 cells/well were plated in DMEM supplemented with penicillin/streptomycin (100 units/mL and […], respectively), 5 μg/mL blasticidin S, and 200 μg/mL hygromycin B in 96-well cell culture microplates (Greiner Bio-One) and induced to express hFFA2-eYFP or hFFA3-YFP with 100 ng/mL doxycycline.
In antagonist mode, the cells were pre-incubated for 20 min with antagonist test compounds in HBSS together with 50 μM IBMX at rt. Then, the cells were further incubated for 25 min at rt in HBSS with the agonist compound, sodium propionate at EC80 (51.4 μM for FFA2, 13.2 μM for FFA3), and 3 μM forskolin. Reactions were stopped, and the output was measured with an Envision plate reader using a time-resolved fluorescence protocol, measuring the light emission at 620 and 665 nm. All analyses were performed in triplicate and analyzed using GraphPad Prism (version 9).

human FFA2-eYFP = target: T2, human FFA2-eYFP (Homo sapiens, UniProt O15552); test: [35S]GTPγS incorporation assay, membranes of Flp-In T-Rex 293 cells; type: biochemical; settings: for GTPγS pIC50: hFFA2, propionate at EC80, mean ± SEM, three or more experiments; for LLEGTPγS: pIC50, GTPγS – ClogP
T2 construct: expressed in transfected cells; host or cells: membranes of Flp-In T-Rex 293 cells induced to express the construct
T2 sequence (O15552 1-330): T1 sequence (O15552 1-330)
Procedure: as §1
Functional activity of the compounds were tested in a [^35S]GTPγS incorporation assay using membranes of Flp-In T-Rex 293 cells induced to express human FFA2-eYFP. […] The reaction was initiated by addition of [^35S]GTPγS (100 nCi per reaction) containing 1 μM GDP and incubated at 30 °C for 60 min. The reaction was terminated by rapid vacuum filtration through GF/C glass fiber filter-bottom 96-well microplates (PerkinElmer Life Sciences, Beaconsfield, UK) using a UniFilter FilterMate Harvester (PerkinElmer). Unbound radioligands were removed from filters by three washes with ice-cold PBS. MicroScint-20 (PerkinElmer) was added to dried filters, and [^35S]GTPγS binding was quantified by liquid scintillation spectroscopy.

[1] = Kinetic aqueous solubility; type: physicochemical; settings: phosphate buffer; kinetic solubility in PBS at pH 7.4 and 25 °C
Procedure: Twenty microliters of a 10 mM compound stock solution in DMSO was added to an Eppendorf tube containing 980 μL of phosphate buffer (10 mM, pH = 7.4). The samples were incubated in an Eppendorf Thermomixer (25 °C, 800 rpm) for 24 h. Afterward, the samples were centrifuged for 5 min at 11,000 rpm and the supernatant was filtered (0.2 μm PTFE membrane) before analysis by HPLC. Each compound was analyzed in duplicate. The solubility was calculated from the peak area relative to the reference samples (200 μM in MeOH/MilliQ H2O, 60/40, v/v).

[2] = Lipophilicity (logD7.4), octanol/PBS7.4 shake flask; type: physicochemical; settings: 1-octanol/PBS7.4, pH 7.4; mean of two independent experiments
Procedure: The assay was performed in duplicates essentially as previously described.[58] A glass vial with a screw cap (8 mL) was charged with the test compound (40 μL, 10 mM in DMSO), PBS7.4 (0.01 M, 1980 μL), and 1-octanol (1980 μL). The vial was capped and sealed with a Parafilm and shaken at 700 rpm using an IKA KS 125 basic shaker for 24 h at 25 °C. The Parafilm was removed, and the sample was allowed to equilibrate for 1 h before analysis. One hundred microliters of the octanol phase was withdrawn and diluted 1:10 with MeOH (+0.1% TFA)/MilliQ water (4:1, v/v) and analyzed by HPLC. The interface was removed, and the PBS7.4 phase analyzed directly by HPLC. All analysis was performed in duplicates, and log D7.4 values were calculated from the peak areas (mAU·min) and adjusted for difference in injection volume and concentration-absorption effects from the solvents, using two calibration points per compound per solvent, and dilution of the octanol phase.

Microsomal stability = type: in vitro ADME, mouse
Procedure: The assay was performed in duplicates essentially as described previously,[58] using male CD1 mouse liver microsomes (Thermo Fischer Scientific, 20 mg/mL), NADPH-regenerating agent Solution A and Solution B (Promega), potassium phosphate buffer (100 mM, pH 7.4), and test compounds (1 mM, diluted from 10 mM DMSO stock in the buffer). The samples were analyzed in an Agilent 6130 Mass Spectrometer instrument using electron spray ionization (ESI) coupled to an Agilent 1200 HPLC system (ESI-LCMS) with a C18 reverse phase column (Zorbax Eclipse XBD-C18, 4.6 mm × 50 mm) using a linear gradient of the binary solvent system of 100% mobile phase A (water:MeCN:formic acid, 95:5:0.1 v/v%) to 100% mobile phase B (MeCN:formic acid, 100:0.1 v/v %) in 6 min, with a flow rate of 1 mL/min.
To a pre-warmed solution of potassium phosphate buffer (135.6 μL) in an Eppendorf tube at 37 °C were added Solution A (7.5 μL), Solution B (1.5 μL), microsomes (3.9 μL), and the test compound (1 mM, 1.5 μL, final concentration = 10 μM). The tube was briefly vortexed and incubated at 37 °C in a thermomixer. At 0, 15, 30, 45, and 60 min, 25 μL of each sample was transferred to an ice-cold solution containing an internal standard (5 μM in MeCN, 12.5 μL). The sample was briefly vortexed and centrifuged for 5 min at 10.000g. The supernatant (25 μL) was transferred to HPLC vial and analyzed by ESI-LCMS in single ion mode. The data was analyzed using GraphPad Prism (version 9).

[3] = % recovered after 60 min, mouse liver microsomes

Row | cAMP pIC50 (hFFA2) | LLEcAMP (hFFA2) | LLEcAMP-logD (hFFA2) | IC50 (hFFA2; supplementary CSV) | GTPγS pIC50 (human FFA2-eYFP) | LLEGTPγS (human FFA2-eYFP) | increased potency over CATPB (3) (human FFA2-eYFP; vs 3) | increase in potency over TUG-1958 (4) (human FFA2-eYFP; vs 4) | solubility at 24 h [1] | logD at 25 h [2] | microsomal stability (Microsomal stability; [3]) | microsomal stability (Microsomal stability; supplementary CSV) | hFFA2 cAMP (pIC50) (hFFA2; supplementary CSV) | SMILES
1 | 8.30 ± 0.12 | 5.24 | 7.04 | 5.62 nM | 8.07 ± 0.08 | 5.01 | more than 10 fold | 4 fold | 163 µM (≈ 65.8 µg/mL) | 1.26 ± 0.07 | 89% | 89% |  | Cc1cccc(CC(=O)N[C@@H](Cc2ccc(C(F)(F)F)cc2)Cc2nnn[nH]2)c1 [Compound 8, (S)-N-(1-(1H-Tetrazol-5-yl)-3-(4-(trifluoromethyl)phenyl)propan-2-yl)-2-(m-tolyl)acetamide]
2 | 8.15 ± 0.05 | 4.87 | 6.35 | 6.61 nM | 8.53 ± 0.19 | 5.25 |  |  | 138 µM (≈ 58.5 µg/mL) | 1.8 ± 0.09 | 92% | 92% |  | O=C(Cc1cccc(Cl)c1)N[C@@H](Cc1ccc(C(F)(F)F)cc1)Cc1nnn[nH]1 [Compound 16e, (S)-N-(1-(1H-Tetrazol-5-yl)-3-(4-(trifluoromethyl)phenyl)propan-2-yl)-2-(3-chlorophenyl)acetamide]
3 | 8.21 ± 0.09 | 4.78 |  |  | 8.30 ± 0.21 | 4.87 |  |  | 121 µM (≈ 56.7 µg/mL) |  |  |  | 8.19 ± 0.19 | O=C(Cc1cccc(Br)c1)N[C@@H](Cc1ccc(C(F)(F)F)cc1)Cc1nnn[nH]1 [Compound 16g, (S)-N-(1-(1H-Tetrazol-5-yl)-3-(4-(trifluoromethyl)phenyl)propan-2-yl)-2-(3-bromophenyl)acetamide]
4 | 8.26 ± 0.08 | 4.57 |  | 6.03 nM | 8.38 ± 0.05 | 4.69 |  |  | 81 µM (≈ 41.7 µg/mL) |  |  |  |  | O=C(Cc1cccc(I)c1)N[C@@H](Cc1ccc(C(F)(F)F)cc1)Cc1nnn[nH]1 [Compound 16h, (S)-N-(1-(1H-Tetrazol-5-yl)-3-(4-(trifluoromethyl)phenyl)propan-2-yl)-2-(3-iodophenyl)acetamide]
